Data published in US20220089592A1, “IMIDAZO[1,2-A]PYRIDINYL DERIVATIVES AS IRAK4 INHIBITORS” (priority 2019, published 2022).

target: T1, IRAK4 (Homo sapiens, UniProt Q9NWZ3); assay: 2-hour 10 μM ATP Biochemical Assay (MesoScale Detection format; IRAK4 phosphorylation of biotin labeled IRAK1 activation loop peptide); conditions: IRAK4 MSD BIOCHEMICAL (10 μM ATP) IC50 (μM), 1 nM IRAK4, 2 hours
T1 sequence (Q9NWZ3 1-460): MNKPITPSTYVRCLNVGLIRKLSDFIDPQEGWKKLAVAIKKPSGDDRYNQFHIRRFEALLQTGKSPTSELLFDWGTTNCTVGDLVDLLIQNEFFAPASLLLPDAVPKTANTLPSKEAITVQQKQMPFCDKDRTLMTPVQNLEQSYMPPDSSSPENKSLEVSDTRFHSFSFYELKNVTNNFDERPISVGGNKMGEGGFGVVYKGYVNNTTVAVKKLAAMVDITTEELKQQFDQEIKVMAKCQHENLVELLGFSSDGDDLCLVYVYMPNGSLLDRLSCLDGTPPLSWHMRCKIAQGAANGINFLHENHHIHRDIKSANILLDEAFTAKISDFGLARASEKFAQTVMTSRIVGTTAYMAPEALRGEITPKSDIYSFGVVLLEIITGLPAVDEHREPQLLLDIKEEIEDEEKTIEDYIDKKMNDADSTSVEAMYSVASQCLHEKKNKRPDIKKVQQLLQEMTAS
Experimental: The 2-hour 10 μM ATP Biochemical Assay employs a MesoScale Detection (MSD) format.
The activity is quenched with 11 μl of 70 mM EDTA, pH 8.
To detect the phosphorylated biotinylated peptide substrate, 30 μl of the quenched reaction mixture is added to equivalent wells of a 384 well streptavidin coated MesoScale plate (Meso Scale Discovery #L21SA-1). After a 1 hour incubation of the plate for 1 hour at room temperature with gentle mixing, the plate wells are washed 3 times with 50 mM Tris, pH 7.5, 150 mM NaCl, 0.02% Tween-20.
A 25 μl volume of 1:500 anti-P-Threonine Rabbit polyclonal Antibody plus 1:500 Goat-anti-Rabbit Sulfo Tag Antibody (Meso Scale Discovery R32AB-1) in 50 mM Tris, pH 7.5, 150 mM NaCl, 0.02% Tween-20 plus 2% BSA is then added to each well. After a 1-hour incubation of the plate for 1 hour at room temperature with gentle mixing, the plate wells are washed, 3 times with 50 mM Tris, pH 7.5, 150 mM NaCl, 0.02% Tween-20. A 40 μl volume of 2×MSD Read Buffer (Meso Scale Discovery R92TC-1) is added to each well, and the plate is read immediately in an MSD Plate Reader (Meso Scale Discovery).

IC50	Structure (SMILES)
0.004 µM	COc1cc(NC(=O)c2cccc(C(F)F)n2)cn2cc(CC3CCOCC3)nc12 [Example 506, 6-(difluoromethyl)-N-(8-methoxy-2-((tetrahydro-2H-pyran-4-yl)methyl)imidazo[1,2-a]pyridin-6-yl)picolinamide]
0.037 µM	COc1cc(NC(=O)c2ccn(C)n2)cn2cc(C3CCOCC3)nc12 [Example 412, N-(8-methoxy-2-(tetrahydro-2H-pyran-4-yl)imidazo[1,2-a]pyridin-6-yl)-1-methyl-1H-pyrazole-3-carboxamide 2,2,2-trifluoroacetate]
0.005 µM	COc1nc(NC(=O)c2cccc3c2OCC3)cn2cc(C3CCOCC3)nc12 [Example 453, N-(8-methoxy-2-(tetrahydro-2H-pyran-4-yl)imidazo[1,2-a]pyrazin-6-yl)-2,3-dihydrobenzofuran-7-carboxamide]

Continued, molecule first:

Structure (SMILES)	IC50
CCOc1cc2nc(C3CC3)cn2cc1NC(=O)c1cncc(C(F)(F)F)n1 [Example 120, N-(2-cyclopropyl-7-ethoxyimidazo[1,2-a]pyridin-6-yl)-6-(trifluoromethyl)pyrazine-2-carboxamide]	0.028 µM
C[C@H](COc1cc2nc(C3CC3)cn2cc1NC(=O)c1cccc(C(F)F)n1)n1ccccc1=O (single isomer, unassigned) [Example 7]	0.28 µM
CCOc1cc2nc(CC3CCOC3)cn2cc1NC(=O)c1coc(-c2cnn(C)c2)n1 (single isomer, unassigned) [Example 252, N-(7-ethoxy-2-((tetrahydrofuran-3-yl)methyl)imidazo[1,2-a]pyridin-6-yl)-2-(1-methyl-1H-pyrazol-4-yl)oxazole-4-carboxamide]	0.001 µM
O=C(Nc1cc(OCc2ccccc2)c2nc(C3CCOCC3)cn2c1)c1cccc(C(F)(F)F)n1 [Example 103, N-(8-(benzyloxy)-2-(tetrahydro-2H-pyran-4-yl)imidazo[1,2-a]pyridin-6-yl)-6-(trifluoromethyl)picolinamide]	0.023 µM
CCOc1cc2nc(CC)cn2cc1NC(=O)c1nc(C)c(C)s1 [Example 48, N-(7-ethoxy-2-ethylimidazo[1,2-a]pyridin-6-yl)-4,5-dimethylthiazole-2-carboxamide]	2 µM
O=C(Nc1cn2cc(C3CC3)nc2cn1)c1cccc(C(F)F)n1 [Example 31, N-(2-cyclopropylimidazo[1,2-a]pyrazin-6-yl)-6-(difluoromethyl)picolinamide]	0.089 µM
CCOc1cc2nc(CC)cn2cc1NC(=O)c1cc2n(n1)CCC2 [Example 38, N-(7-ethoxy-2-ethylimidazo[1,2-a]pyridin-6-yl)-5,6-dihydro-4H-pyrrolo[1,2-b]pyrazole-2-carboxamide]	2.6 µM
O=C(Nc1cc(O)c2nc(C3CCOCC3)cn2c1)c1cccc(C(F)(F)F)n1 [Example 104, N-(8-hydroxy-2-(tetrahydro-2H-pyran-4-yl)imidazo[1,2-a]pyridin-6-yl)-6-(trifluoromethyl)picolinamide]	0.13 µM

target: T1, IRAK4; assay: 2-hour 1 mM ATP IRAK4 Biochemical assay (as above, but with 100 pM IRAK4 and 1 mM ATP); conditions: IRAK4 MSD BIOCHEMICAL (1 mM ATP) IC50 (μM), 100 pM IRAK4, 2 hours
Method in brief: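 MSD electrochemiluminescence read-out: biotinylated peptide product bound to streptavidin plates, probed with anti-P-Thr rabbit antibody and Sulfo-Tag goat anti-rabbit. Kinase reaction used 1 mM ATP and 100 pM IRAK4 over 2 hours before EDTA quench.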

IC50	Structure (SMILES)
0.011 µM	COc1nc(NC(=O)c2cccc(C(F)F)n2)cn2cc(C34COC(C)(C3)C4)nc12 [Example 554, 6-(difluoromethyl)-N-(8-methoxy-2-(1-methyl-2-oxabicyclo[2.1.1]hexan-4-yl)imidazo[1,2-a]pyrazin-6-yl)picolinamide 2,2,2-trifluoroacetate]
0.002 µM	COc1ccccc1C(=O)Nc1cn2cc(C34COC(C)(C3)C4)nc2nc1OC(C)C [Example 488, N-(7-isopropoxy-2-(1-methyl-2-oxabicyclo[2.1.1]hexan-4-yl)imidazo[1,2-a]pyrimidin-6-yl)-2-methoxybenzamide]
0.023 µM	CCOc1cc(NC(=O)c2cccc(C(F)(F)F)n2)cn2cc([C@H]3[C@@H]4COC[C@@H]43)nc12 [Example 416, N-(2-((1R,5S,6s)-3-oxabicyclo[3.1.0]hexan-6-yl)-8-ethoxyimidazo[1,2-a]pyridin-6-yl)-6-(trifluoromethyl)picolinamide]
0.001 µM	CC(C)Oc1cc2nc(C3CCOCC3)c(F)n2cc1NC(=O)c1cccc(C(F)F)n1 [Example 352, 6-(difluoromethyl)-N-(3-fluoro-7-isopropoxy-2-(tetrahydro-2H-pyran-4-yl)imidazo[1,2-a]pyridin-6-yl)picolinamide]
0.001 µM	CC(C)Oc1nc2nc(C3CCOCC3)cn2cc1NC(=O)c1cccc2c1OCC2(F)F [Example 487, 3,3-difluoro-N-(7-isopropoxy-2-(tetrahydro-2H-pyran-4-yl)imidazo[1,2-a]pyrimidin-6-yl)-2,3-dihydrobenzofuran-7-carboxamide]
0.003 µM	Cc1cccc(C(=O)Nc2cn3cc(C45COC(C)(C4)C5)nc3c(F)c2OC(C)C)c1F [Example 425, 2-fluoro-N-(8-fluoro-7-isopropoxy-2-(1-methyl-2-oxabicyclo[2.1.1]hexan-4-yl)imidazo[1,2-a]pyridin-6-yl)-3-methylbenzamide 2,2,2-trifluoroacetate]
0.016 µM	CC(C)Oc1nc(NC(=O)c2cccc(C(F)F)n2)cn2cc(C3CCOCC3)nc12 [Example 339, 6-(difluoromethyl)-N-(8-isopropoxy-2-(tetrahydro-2H-pyran-4-yl)imidazo[1,2-a]pyrazin-6-yl)picolinamide]
0.067 µM	COC(C)c1cc2nc(C3CCOCC3)cn2cc1NC(=O)c1cccc(C(F)F)n1 (stereo not shown) [Example 313, 6-(difluoromethyl)-N-(7-(1-methoxyethyl)-2-(tetrahydro-2H-pyran-4-yl)imidazo[1,2-a]pyridin-6-yl)picolinamide]
0.001 µM	CC(C)Oc1c(NC(=O)c2cccc3ccnn23)cn2cc(C34COC(C)(C3)C4)nc2c1F [Example 548, N-(8-fluoro-7-isopropoxy-2-(1-methyl-2-oxabicyclo[2.1.1]hexan-4-yl)imidazo[1,2-a]pyridin-6-yl)pyrazolo[1,5-a]pyridine-7-carboxamide 2,2,2-trifluoroacetate]
0.073 µM	CC(C)Oc1c(NC(=O)c2cccnc2OC(F)F)cn2cc(C34COC(C)(C3)C4)nc2c1F [Example 323, 2-(difluoromethoxy)-N-(8-fluoro-7-isopropoxy-2-(1-methyl-2-oxabicyclo[2.1.1]hexan-4-yl)imidazo[1,2-a]pyridin-6-yl)nicotinamide]

Second part, the molecule before the results:

Structure (SMILES)	IC50
Cc1nc(NC(=O)c2cccc(C(F)F)n2)cn2cc(C3CCOCC3)nc12 [Example 296, 6-(difluoromethyl)-N-(8-methyl-2-(tetrahydro-2H-pyran-4-yl)imidazo[1,2-a]pyrazin-6-yl)picolinamide]	0.089 µM
CC12CC(c3cn4cc(NC(=O)c5cccc(C(F)F)n5)ncc4n3)(CO1)C2 [Example 274, 6-(difluoromethyl)-N-(2-(1-methyl-2-oxabicyclo[2.1.1]hexan-4-yl)imidazo[1,2-a]pyrazin-6-yl)picolinamide]	0.068 µM
COc1cc(NC(=O)c2cccc(C(F)F)n2)cn2cc(C3CCCOC3)nc12 (racemic) [Example 268, 6-(difluoromethyl)-N-(8-methoxy-2-(tetrahydro-2H-pyran-3-yl)imidazo[1,2-a]pyridin-6-yl)picolinamide]	0.002 µM
CCOc1cc(NC(=O)c2cccc(C(F)F)n2)cn2cc(C3CCCOC3)nc12 (single isomer, unassigned) [Example 286, 6-(difluoromethyl)-N-(8-ethoxy-2-(tetrahydro-2H-pyran-3-yl)imidazo[1,2-a]pyridin-6-yl)picolinamide]	0.005 µM
